In ChEMBL document CHEMBL1128189, “alpha-Hydroxy phosphinyl-based inhibitors of human renin” (J Med Chem, 1995) one finds IC50 data, which are given here for 16 compounds.

The first assay concerns the target T1, Renin (Homo sapiens, UniProt P00797).
T1 sequence (P00797 whole entry): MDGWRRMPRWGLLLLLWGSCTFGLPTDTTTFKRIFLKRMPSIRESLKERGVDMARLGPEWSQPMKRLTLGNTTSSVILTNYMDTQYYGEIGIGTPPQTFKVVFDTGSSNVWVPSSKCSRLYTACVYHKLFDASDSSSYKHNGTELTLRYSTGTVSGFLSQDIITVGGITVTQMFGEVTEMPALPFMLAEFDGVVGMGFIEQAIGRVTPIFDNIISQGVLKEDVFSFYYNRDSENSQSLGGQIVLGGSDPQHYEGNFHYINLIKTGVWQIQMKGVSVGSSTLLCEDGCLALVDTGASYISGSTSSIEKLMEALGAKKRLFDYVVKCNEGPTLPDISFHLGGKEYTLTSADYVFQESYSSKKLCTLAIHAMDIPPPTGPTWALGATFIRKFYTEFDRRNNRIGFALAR
Kind of assay: Evaluation of inhibitory activity against human renin. value in parentheses indicate no. of determinations.
Turning to `CCP(=O)(CC)[C@H](O)[C@H](CC1CCCCC1)NC(=O)[C@H](CC(C)C)NC(=O)[C@H](Cc1ccccc1)NC(=O)C1CCCC1`, the IC50 (as a rule, the concentration at which inhibition is half-maximal) is 0.4 µM.
Same read-out and setting: next, `CCP(=O)(CC)[C@@H](O)[C@H](CC1CCCCC1)NC(=O)[C@H](CC(C)C)NC(=O)[C@H](Cc1ccccc1)NC(=O)C1CCCC1`: 5.2 µM; `CCP(=O)(OC)C(O)[C@H](CC1CCCCC1)NC(=O)[C@H](CC(C)C)NC(=O)[C@H](Cc1ccccc1)NC(=O)C1CCCC1` (stereo in doubt; 28): 0.21 µM.
Still for that read-out and setting: the same measure for `CCP(=O)(OC)C(O)[C@H](CC1CCCCC1)NC(=O)[C@H](CC(C)C)NC(=O)[C@H](Cc1ccccc1)NC(=O)C1CCCC1` (stereo in doubt; 29): 0.044 µM; for `CCP(=O)(OC)C(O)[C@H](CC1CCCCC1)NC(=O)[C@H](CC(C)C)NC(=O)[C@H](Cc1ccccc1)NC(=O)C1CCCC1` (stereo in doubt; 30): 2.4 µM.

The next assay concerns the target T1, Renin. Kind of assay: Evaluation of inhibitory activity against human renin.
`CCOP(=O)(OCC)[C@@H](O)[C@H](CC1CCCCC1)NC(=O)[C@H](CC(C)C)NC(=O)[C@H](Cc1ccccc1)NC(=O)OC(C)(C)C` gave an IC50 of 41 µM.
Turning to `COP(=O)(OC)[C@H](O)[C@H](CC1CCCCC1)NC(=O)[C@H](CC(C)C)NC(=O)[C@H](Cc1ccccc1)NC(=O)OC(C)(C)C`, the IC50 was determined as 0.01 µM.
On the same count and under the same terms, the same measure for `CCOP(=O)(OCC)[C@H](O)[C@H](CC1CCCCC1)NC(=O)[C@H](CC(C)C)NC(=O)[C@H](Cc1ccccc1)NC(=O)C1CCCC1`: 0.038 µM; for `CCOP(=O)(OCC)[C@H](O)[C@H](CC1CCCCC1)NC(=O)[C@H](CC(C)C)NC(=O)[C@H](Cc1ccccc1)NC(=O)OC(C)(C)C`: 0.029 µM.

The target in the next assay is T1, Renin. Kind of assay: Evaluation of inhibitory activity against human renin.
For `COP(=O)(OC)[C@H](O)[C@H](CC1CCCCC1)NC(=O)[C@H](CC(C)C)NC(=O)[C@H](Cc1ccccc1)NC(=O)CCCCCN`, the IC50 was determined as 0.031 µM.
On the same count and under the same terms, the same measure for `CCOC(=O)[C@H](O)[C@H](CC1CCCCC1)NC(=O)[C@H](CC(C)C)NC(=O)[C@H](Cc1ccccc1)NC(=O)OC(C)(C)C`: 0.005 µM.
`COP(=O)(OC)[C@H](O)[C@H](CC1CCCCC1)NC(=O)[C@H](CC(C)C)NC(=O)[C@H](Cc1ccccc1)NC(=O)N1CCOCC1` yielded an IC50 of 0.0085 µM.
On the same count and under the same terms, next, `COP(=O)(OC)[C@H](O)[C@H](CC1CCCCC1)NC(=O)[C@H](Cc1cnc[nH]1)NC(=O)[C@H](Cc1ccccc1)NC(=O)N1CCOCC1`: 0.041 µM.
`COP(=O)(O)[C@H](O)[C@H](CC1CCCCC1)NC(=O)[C@H](CC(C)C)NC(=O)[C@H](Cc1ccccc1)NC(=O)C1CCCC1`: 27 µM corresponded to half-maximal inhibition (IC50).
`COP(=O)(OC)[C@H](O)[C@H](CC1CCCCC1)NC(=O)[C@H](CC(C)C)NC(=O)[C@H](Cc1ccccc1)NC(=O)C1CCCC1` registered an IC50 of 0.016 µM.
On the same count and under the same terms, next, `COP(=O)(OC)[C@H](O)[C@H](CC1CCCCC1)NC(=O)[C@H](Cc1cnc[nH]1)NC(=O)[C@H](Cc1ccccc1)NC(=O)C1CCCC1`: 0.22 µM.
